The source of these data is patent publication US20230210984A1, “ADOPTIVE IMMUNOTHERAPY” (The Council of the Queensland Institute of Medical Research, priority 2019, published 2023).

Common to all, as to assay type: cell-based
Test [1] relates to SNU719 and C666.1 cells. The test is described as follows: Flow cytometry of cancer cell intrinsic pathways and immune regulatory molecules. Conditions: 16 hours, JQ1 2.5 μM; for MHC-Class I expression: inhibitor alone and in combination with HLA-matched T cells; for MHC-Class I expression / MYC expression / pERK1/2 expression / pSTAT3 expression: selumatinib 1 μM. Here is the method: FIG. 13: Phenotyping the impact of dual combination of MEK1/2 inhibitor and HLA matched allogeneic EBV specific T coils on cancer cell intrinsic pathways. Representation of the cancer cell phenotype after 16 hours of individual and dual combination of selumatinib (1 μM) and HLA-matched EBV specific T cells (effector-to-target ratio of 25:1) among SNU719 (upper panel) and C666.1 (lower panel) on the expression of (A) pERK1/2; (B) MHC-Class I; (C) pSTAT3; and (D) MYC performed using flow cytometry. The data are represented as the mean±SD from three independent experiments. P-values were calculated using one-way ANOVA: ns=not significant, *p<0.05, **p<0.01, ***p<0.001 and ****p<0.0001.
FIG. 17: Phenotyping the impact of dual combination of JQ1 inhibitor and MLA matched allogeneic EBV-specific T cells on cancer cell intrinsic pathways. Representation of the cancer cell phenotype after 16 hours of individual and dual combination of JQ1 (2.5 μM) and HLA-matched EBV specific T cells (effector-to-target ratio of 25:1) among SNU719 (upper panel) and C666.1 (lower panel) on the expression of (A) MYC; (B) pERK1/2; (C) pAKT; and (D) pSTAT3 performed using flow cytometry. The data are represented as the mean±SD from three independent experiments. P-values were calculated using one-way ANOVA: ns=not significant, *p<0.05, **p<0.01, ***p<0.001 and ****p<0.0001.
FIG. 18: Phenotyping the impact of dual combination of JQ1 inhibitor and HLA matched allogeneic EBV specific T cells on immune regulatory molecules. Representation of the cancer cell phenotype after 16 hours of individual and dual combination of JQ1 (2.5 μM) and HLA-matched EBV specific T cells (effector-to-target ratio of 25:1) among SNU719 (upper panel) and C666.1 (lower panel) on the expression of (A) MHC Class-I; (B) PD-L1; and (C) CD47 performed using flow cytometry. The data are represented as the mean±SD from three independent experiments. P-values were calculated using one-way ANOVA: ns=not significant, *p<0.05, **p<0.01, ***p<0.001 and ****p<0.0001.
In next set of experiments, we wanted to investigate the effect of the dual combination the cancer cell intrinsic pathway and describe the rationale of the effective combination of MEK1/2 inhibition with T cell treatment. […] As a result, we observed upregulation of MHC-Class I expression in presence of selumatinib alone and in combination with respective HLA-matched T cells (FIG. 13B). […] Thus, inhibition of MEK1/2 pathway results in upregulation of MHC-class I expression via upregulation of STAT3 pathway and downregulation of MYC which enabling better therapeutic compatibility in presence of HLA-matched allogeneic T cells.
Next, we wanted to determine the specificity of the combination and as such we challenged SNU719 and C666.1 cells with HLA-mismatch allogeneic T cells alongside JQ1 inhibitor individually and in combination. […] In next set of experiments, we wanted to investigate rationale of the effective combination of JQ1 inhibition with T cell treatment. […] As a result, it caused downregulation of pERK1/2, pAKT and pSTAT3 expression (FIG. 17B-C).

For test [2], the system named is SNU719 and C666.1 cells. The test is described as follows: Xcellegence cell growth curve (Example 3). Particulars: dual combination with HLA matched T cells 25:1 vs individual treatment, selumatinib 1 μM, JQ1 2.5 μM. How it is done:
FIG. 11: Impact of dual combination of MEK1/2 inhibitor and HLA matched allogeneic EBV specific T cells. (A) Cell growth curve highlight the rate of cellular proliferation of SNU719 (upper panel) and C666.1 (lower panel) observed in the presence of HLA-matched EBV specific T cells (effector-to-target ratio of 25:1) and selumatinib (1 μM) individually and in combination, measured using Xcellegence. The effect of individual and dual combination on (B) cell proliferation based on Ki67 and (C) cell death based on active Caspase-3 of SNU719 expression (upper panel) and C666.1 (lower panel), performed using flow cytometry. The data are represented as the mean±SD from three independent experiments. P-values were calculated using one-way ANOVA: ns=not significant, *p<0.05, **p<0.01, ***p<0.001 and ****p<0.0001.
FIG. 15: Impact of dual combination of JQ1 inhibitor and HLA matched allogeneic EBV-specific T cells. The cell viability measured by MTS assay highlighting the impact of a HLA-matched EBV specific T cells at the effector-to-target ratio of 25:1 and JQ1 (2.5 μM) in suppressing cellular growth individually and in combination after 48 hrs of incubation with indicated (A) gastric (SNU719, YCCLE1 (upper panel)) and nasopharyngeal cancer cells (C17, C666.1 (lower panel)). […] P-values were calculated using one-way ANOVA: ns=not significant, *p<0.05, **p<0.01, ***p<0.001 and ****p<0.0001. […]

A further test deals with SNU719 cells. The experiment in a line: Annexin V binding assay, inhibitor combined with EBV-specific T cells. Particulars: combination with EBV-specific T cells (25:1) vs individual treatment, 48 hrs; AZD6244 0.5 μM, trematinib 1.0 μM, JQ1 5.0 μM.

Protocol for SNU719 cells: We treated SNU719 cells (gastric cancer cells) with MEK1/2 inhibitor (AZD6244 (or selumetanib) and trematinib) at concentration of 0.5 μM and 1.0 μM respectively, as individual treatment or in combination with EBV-specific T cells (25:1) as effector to target ratio.
We treated SNU719 cells with JQ1 inhibitor at concentration of 5.0 μM, as individual treatment or in combination with EBV-specific T cells (25:1) as effector to target ratio.

For the molecule `Cc1sc2c(c1C)C(c1ccc(Cl)cc1)=N[C@@H](CC(=O)OC(C)(C)C)c1nnc(C)n1-2` [JQ1], in the test on SNU719 and C666.1 cells [1], the CD47 expression result is “downregulation”, the PD-L1 expression result is given as “downregulation”, the pAKT expression result is given as “downregulation” and the “MHC-Class I expression” value is “enhancing”. In addition, in the test with SNU719 and C666.1 cells [1], the MYC expression result is on record as “significant reduction”, the pERK1/2 expression result was “downregulation” and the pSTAT3 expression result is “downregulation”. The “rate of cell death (Xcellegence)” value in the test on SNU719 and C666.1 cells [2] is given as “faster cell death”. In the test on SNU719 cells, the “binding of Annexin V among SNU719 cells” value was “significantly higher binding of Annexin V”.

`Cn1cnc2c(F)c(Nc3ccc(Br)cc3Cl)c(C(=O)NOCCO)cc21` [selumetanib]: in the test with SNU719 and C666.1 cells [1], the “MHC-Class I expression” value is given as “upregulation”, the MYC expression result is given as “downregulation”, the pERK1/2 expression entry is “significant reduction” and the pSTAT3 expression entry is “upregulation”. In addition, in the test with SNU719 and C666.1 cells [2], the “rate of cell death (Xcellegence)” value was “faster cell death”. The “binding of Annexin V among SNU719 cells” value with SNU719 cells is given as “significantly higher binding of Annexin V”.
